# From ChEMBL document CHEMBL1649532, “Trypanocidal activity of 8-methyl-5'-{[(Z)-4-aminobut-2-enyl]-(methylamino)}adenosine (Genz-644131), an adenosylmethionine decarboxylase inhibitor” (Antimicrob Agents Chemother, 2009)
# The source made the active and inactive calls. No cut-off for these calls is given here.
# Key:
# [1] = system: Trypanosoma brucei rhodesiense; assay: Trypanocidal activity against Trypanosoma brucei rhodesiense KETRI2002 infected in mouse assessed as average survival time at 50 mg/kg, ip BID administered 24 hrs postinfection; format: functional; details: route intraperitoneal
# [2] = system: Trypanosoma brucei rhodesiense; assay: Trypanocidal activity against Trypanosoma brucei rhodesiense KETRI1992 infected in mouse assessed as cure rate at 25 mg/kg, ip BID administered 24 hrs postinfection; format: functional; details: route intraperitoneal
# [3] = system: Trypanosoma brucei brucei; assay: Trypanocidal activity against Trypanosoma brucei brucei EATRO infected in mouse assessed as mean survival time at 2.5 mg/kg, ip QD for 4 days; format: functional; details: route intraperitoneal
# [4] = system: Trypanosoma brucei brucei; assay: Trypanocidal activity against Trypanosoma brucei brucei 667 infected in mouse assessed as average day of relapse of trypanosomal infection at 10 mg/kg, ip BID for 14 days; format: functional; details: route intraperitoneal
# [5] = system: Trypanosoma brucei rhodesiense; assay: Trypanocidal activity against Trypanosoma brucei rhodesiense KETRI1992 infected in mouse assessed as protection against trypanosomal infection at 10 mg/kg, ip QD administered 24 hrs postinfection; format: functional, organism-based; parameters: dose 10 mg/kg
# [6] = system: Trypanosoma brucei rhodesiense; assay: Trypanocidal activity against Trypanosoma brucei rhodesiense KETRI2002 infected in mouse assessed as cure rate at 50 mg/kg, ip BID administered 24 hrs postinfection; format: functional; details: route intraperitoneal
# [7] = system: Trypanosoma brucei brucei; assay: Trypanocidal activity against Trypanosoma brucei brucei EATRO infected in mouse assessed as protection against trypanosomal infection at 50 mg/kg, ip BID for 4 days; format: functional, organism-based; parameters: dose 50 mg/kg
# [8] = system: Trypanosoma brucei brucei; assay: Trypanocidal activity against Trypanosoma brucei brucei EATRO infected in mouse assessed as cure rate at 1 mg/kg, ip QD for 4 days; format: functional; details: route intraperitoneal
# [9] = system: Trypanosoma brucei rhodesiense; assay: Trypanocidal activity against Trypanosoma brucei rhodesiense KETRI1992 infected in mouse assessed as protection against trypanosomal infection at 10 mg/kg, ip BID administered 24 hrs postinfection; format: functional, organism-based; parameters: dose 10 mg/kg
# [10] = system: Trypanosoma brucei brucei; assay: Trypanocidal activity against Trypanosoma brucei brucei EATRO infected in mouse assessed as mean survival time at 2 mg/kg, ip QD for 4 days; format: functional; details: route intraperitoneal
# [11] = system: Trypanosoma brucei rhodesiense; assay: Trypanocidal activity against Trypanosoma brucei rhodesiense KETRI1992 infected in mouse assessed as average survival time at 50 mg/kg, ip QD administered 24 hrs postinfection; format: functional; details: route intraperitoneal
# [12] = system: Trypanosoma brucei rhodesiense; assay: Trypanocidal activity against Trypanosoma brucei rhodesiense KETRI1992 infected in mouse assessed as average survival time at 25 mg/kg, ip QD administered 24 hrs postinfection; format: functional; details: route intraperitoneal
# [13] = system: Trypanosoma brucei brucei; assay: Trypanocidal activity against Trypanosoma brucei brucei EATRO infected in mouse assessed as protection against trypanosomal infection at 5 mg/kg, ip QD for 4 days; format: functional, organism-based; parameters: dose 5 mg/kg
# [14] = system: Trypanosoma brucei brucei; assay: Trypanocidal activity against Trypanosoma brucei brucei EATRO infected in mouse assessed as protection against trypanosomal infection at 50 mg/kg, ip QD for 4 days; format: functional, organism-based; parameters: dose 50 mg/kg
# [15] = system: Trypanosoma brucei brucei; assay: Trypanocidal activity against Trypanosoma brucei brucei 667 infected in mouse assessed as average day of relapse of trypanosomal infection at 100 mg/kg, ip BID for 7 days; format: functional; details: route intraperitoneal
# [16] = system: Trypanosoma brucei rhodesiense; assay: Trypanocidal activity against Trypanosoma brucei rhodesiense KETRI243 infected in mouse assessed as average survival time at 50 mg/kg, ip QD administered 24 hrs postinfection; format: functional; details: route intraperitoneal
# [17] = system: Trypanosoma brucei rhodesiense; assay: Trypanocidal activity against Trypanosoma brucei rhodesiense KETRI2002 infected in mouse assessed as average survival time at 50 mg/kg, ip QD administered 24 hrs postinfection; format: functional; details: route intraperitoneal
# [18] = system: Trypanosoma brucei rhodesiense; assay: Trypanocidal activity against Trypanosoma brucei rhodesiense KETRI2538 after 48 hrs; format: functional, organism-based; details: KETRI2538, 48 h
# [19] = system: Trypanosoma brucei brucei; assay: Trypanocidal activity against Trypanosoma brucei brucei EATRO infected in mouse assessed as mean survival time at 10 mg/kg, ip BID for 4 days; format: functional; details: route intraperitoneal
# [20] = system: Trypanosoma brucei rhodesiense; assay: Trypanocidal activity against Trypanosoma brucei rhodesiense KETRI243 infected in mouse assessed as average survival time at 25 mg/kg, ip QD administered 24 hrs postinfection; format: functional; details: route intraperitoneal
# [21] = system: Trypanosoma brucei brucei; assay: Trypanocidal activity against Trypanosoma brucei brucei 667 infected in mouse assessed as average day of relapse of trypanosomal infection at 100 mg/kg, ip BID for 14 days; format: functional; details: route intraperitoneal
# [22] = system: Trypanosoma brucei rhodesiense; assay: Trypanocidal activity against Trypanosoma brucei rhodesiense KETRI243 infected in mouse assessed as protection against trypanosomal infection at 10 mg/kg, ip BID administered 24 hrs postinfection; format: functional, organism-based; parameters: dose 10 mg/kg
# [23] = system: Trypanosoma brucei rhodesiense; assay: Trypanocidal activity against Trypanosoma brucei rhodesiense KETRI2002 infected in mouse assessed as cure rate at 10 mg/kg, ip BID administered 24 hrs postinfection; format: functional; details: route intraperitoneal
# [24] = system: Trypanosoma brucei rhodesiense; assay: Trypanocidal activity against Trypanosoma brucei rhodesiense KETRI243 infected in mouse assessed as average survival time at 50 mg/kg, ip BID administered 24 hrs postinfection; format: functional; details: route intraperitoneal
# [25] = system: Trypanosoma brucei rhodesiense; assay: Trypanocidal activity against Trypanosoma brucei rhodesiense KETRI1992 infected in mouse assessed as protection against trypanosomal infection at 50 mg/kg, ip BID administered 24 hrs postinfection; format: functional, organism-based; parameters: dose 50 mg/kg
# [26] = system: Trypanosoma brucei rhodesiense; assay: Trypanocidal activity against Trypanosoma brucei rhodesiense KETRI1992 infected in mouse assessed as cure rate at 50 mg/kg, ip BID administered 24 hrs postinfection; format: functional; details: route intraperitoneal
# [27] = system: Trypanosoma brucei rhodesiense; assay: Trypanocidal activity against Trypanosoma brucei rhodesiense KETRI2002 infected in mouse assessed as average survival time at 25 mg/kg, ip BID administered 24 hrs postinfection; format: functional; details: route intraperitoneal
# [28] = system: Trypanosoma brucei brucei; assay: Trypanocidal activity against Trypanosoma brucei brucei EATRO infected in mouse assessed as protection against trypanosomal infection at 10 mg/kg, ip QD for 4 days; format: functional, organism-based; parameters: dose 10 mg/kg
# [29] = system: Trypanosoma brucei brucei; assay: Trypanocidal activity against Trypanosoma brucei brucei EATRO infected in mouse assessed as protection against trypanosomal infection at 10 mg/kg, ip BID for 4 days; format: functional, organism-based; parameters: dose 10 mg/kg
# [30] = system: Trypanosoma brucei rhodesiense; assay: Trypanocidal activity against Trypanosoma brucei rhodesiense KETRI1992 infected in mouse assessed as protection against trypanosomal infection at 50 mg/kg, ip QD administered 24 hrs postinfection; format: functional, organism-based; parameters: dose 50 mg/kg
# [31] = system: Trypanosoma brucei rhodesiense; assay: Trypanocidal activity against Trypanosoma brucei rhodesiense KETRI2002 infected in mouse assessed as protection against trypanosomal infection at 10 mg/kg, ip QD administered 24 hrs postinfection; format: functional, organism-based; parameters: dose 10 mg/kg
# [32] = system: Trypanosoma brucei brucei; assay: Trypanocidal activity against Trypanosoma brucei brucei EATRO infected in mouse assessed as mean survival time at 5 mg/kg, ip QD for 4 days; format: functional; details: route intraperitoneal
# [33] = system: Trypanosoma brucei rhodesiense; assay: Trypanocidal activity against Trypanosoma brucei rhodesiense KETRI243 infected in mouse assessed as protection against trypanosomal infection at 10 mg/kg, ip QD administered 24 hrs postinfection; format: functional, organism-based; parameters: dose 10 mg/kg
# [34] = system: Trypanosoma brucei rhodesiense; assay: Trypanocidal activity against Trypanosoma brucei rhodesiense KETRI1992 infected in mouse assessed as average survival time at 10 mg/kg, ip BID administered 24 hrs postinfection; format: functional; details: route intraperitoneal
# [35] = system: Trypanosoma brucei brucei; assay: Trypanocidal activity against Trypanosoma brucei brucei EATRO infected in mouse assessed as mean survival time at 1 mg/kg, ip QD for 4 days; format: functional; details: route intraperitoneal
# [36] = system: Trypanosoma brucei brucei; assay: Trypanocidal activity against Trypanosoma brucei brucei EATRO infected in mouse assessed as mean survival time at 50 mg/kg, ip QD for 4 days; format: functional; details: route intraperitoneal
# [37] = system: Trypanosoma brucei rhodesiense; assay: Trypanocidal activity against Trypanosoma brucei rhodesiense KETRI2002 infected in mouse assessed as average survival time at 10 mg/kg, ip QD administered 24 hrs postinfection; format: functional; details: route intraperitoneal
# [38] = system: Trypanosoma brucei brucei; assay: Trypanocidal activity against Trypanosoma brucei brucei EATRO infected in mouse assessed as protection against trypanosomal infection at 25 mg/kg, ip BID for 4 days; format: functional, organism-based; parameters: dose 25 mg/kg
structure (smiles),measurement,setting,value
Cc1nc2c(N)ncnc2n1[C@@H]1O[C@H](CN(C)C/C=C\CN)[C@@H](O)[C@H]1O,MST,[1],22 days
same,Activity,[2],60%
same,MST,[3],21 days
same,MST,[4],59.8 days
same,Activity,[5],inactive
same,Activity,[6],80%
same,Activity,[7],Active
same,Activity,[8],>50%
same,Activity,[9],inactive
same,MST,[10],>35 days
same,MST,[11],20.2 days
same,MST,[12],18.6 days
same,Activity,[13],Active
same,Activity,[14],Active
same,MST,[15],68.8 days
same,MST,[16],17.2 days
same,MST,[17],21 days
same,IC50,[18],0.3 ng/mL
same,MST,[19],>35 days
same,MST,[20],14 days
same,MST,[21],72 days
same,Activity,[22],inactive
same,Activity,[23],60%
same,MST,[24],23.3 days
same,Activity,[25],inactive
same,Activity,[26],100%
same,MST,[27],19.3 days
same,Activity,[28],Active
same,Activity,[29],Active
same,Activity,[30],inactive
same,Activity,[31],inactive
same,MST,[32],>35 days
same,Activity,[33],inactive
same,MST,[34],20.4 days
same,MST,[35],13.5 days
same,MST,[36],>35 days
same,MST,[37],16 days
same,Activity,[38],Active
